Experimental data reported in paper doi:10.1101/706168v1 (biorxiv, 2019).

Target: TASK-1 (K2P3.1), wild type (Homo sapiens, UniProt O14649)
Assay: two-electrode voltage clamp, Xenopus oocytes
Type: cell-based

TASK-1 (K2P3.1), wild type, sequence (O14649 whole entry): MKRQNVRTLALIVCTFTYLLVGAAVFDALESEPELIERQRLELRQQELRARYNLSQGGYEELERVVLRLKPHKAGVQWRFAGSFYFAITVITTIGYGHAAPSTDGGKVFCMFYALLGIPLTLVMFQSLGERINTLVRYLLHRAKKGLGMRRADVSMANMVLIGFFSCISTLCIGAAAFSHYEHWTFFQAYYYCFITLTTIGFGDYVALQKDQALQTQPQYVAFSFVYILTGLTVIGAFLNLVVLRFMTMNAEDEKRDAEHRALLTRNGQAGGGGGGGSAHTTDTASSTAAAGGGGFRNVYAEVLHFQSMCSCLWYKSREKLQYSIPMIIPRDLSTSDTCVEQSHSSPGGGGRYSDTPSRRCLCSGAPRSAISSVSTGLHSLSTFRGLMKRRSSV

EC50: 7.6 nM
SMILES: O=C(c1cccc(OC(F)(F)F)n1)N1CCN(Cc2c(-c3ccc(Cl)cc3)nc3ccccn23)CC1 [BAY 2341237, (4-{[2-(4-chlorophenyl)imidazo[1,2-a]pyridin-3-yl]methyl}piperazin-1-yl)[6-(trifluoromethoxy)pyridin-2-yl]methanone]
